Data on 15 compounds can be found in ChEMBL document CHEMBL5247629, “C-6 fluorinated casuarines as highly potent and selective amyloglucosidase inhibitors: Synthesis and structure-activity relationship study” (Eur J Med Chem, 2022).

SMILES strings stand for the structures.

The species named for assay [1] is Bos taurus. In words: Inhibition of bovine liver beta-galactosidase using p-nitrophenyl glycoside as substrate at 1000 uM by spectrometric method relative to control. The class given is tissue-based.
Assay [2] has as its system Helix pomatia. In words: Inhibition of snail beta-mannosidase using p-nitrophenyl glycoside as substrate at 1000 uM by spectrometric method relative to control.
For assay [3], the target named is T1, Alpha-mannosidase (Canavalia ensiformis) (UniProt C0HJB3).
T1 sequence (whole entry): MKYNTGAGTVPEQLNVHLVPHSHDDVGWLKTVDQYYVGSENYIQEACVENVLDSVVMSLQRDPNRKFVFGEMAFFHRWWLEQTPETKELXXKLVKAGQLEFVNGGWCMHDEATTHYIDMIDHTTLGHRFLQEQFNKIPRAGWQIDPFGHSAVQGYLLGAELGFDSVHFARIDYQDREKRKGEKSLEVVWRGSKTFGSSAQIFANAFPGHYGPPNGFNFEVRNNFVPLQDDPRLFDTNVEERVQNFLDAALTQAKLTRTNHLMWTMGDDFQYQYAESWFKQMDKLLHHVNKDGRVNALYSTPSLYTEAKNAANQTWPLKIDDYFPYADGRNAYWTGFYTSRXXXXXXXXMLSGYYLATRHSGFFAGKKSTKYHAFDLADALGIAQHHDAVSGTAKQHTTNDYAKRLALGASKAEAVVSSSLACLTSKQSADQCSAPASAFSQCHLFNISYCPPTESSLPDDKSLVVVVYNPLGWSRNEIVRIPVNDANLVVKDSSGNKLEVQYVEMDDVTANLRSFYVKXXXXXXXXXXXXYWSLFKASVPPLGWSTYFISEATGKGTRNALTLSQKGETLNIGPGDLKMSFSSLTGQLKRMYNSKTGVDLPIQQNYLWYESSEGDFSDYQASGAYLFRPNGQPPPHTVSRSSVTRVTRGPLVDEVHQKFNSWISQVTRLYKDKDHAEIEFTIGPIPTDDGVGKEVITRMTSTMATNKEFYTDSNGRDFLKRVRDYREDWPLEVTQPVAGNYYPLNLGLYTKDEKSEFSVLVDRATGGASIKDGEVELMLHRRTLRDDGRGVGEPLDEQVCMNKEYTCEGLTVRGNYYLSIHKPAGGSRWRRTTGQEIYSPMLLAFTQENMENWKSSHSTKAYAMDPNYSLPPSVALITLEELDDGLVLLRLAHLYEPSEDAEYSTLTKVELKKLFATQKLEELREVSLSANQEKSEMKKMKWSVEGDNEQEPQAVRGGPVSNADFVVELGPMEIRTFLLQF
In words: Inhibition of jack bean alpha-mannosidase using p-nitrophenyl glycoside as substrate at 1000 uM by spectrometric method relative to control.

In assay [4] the target is Alpha-glucosidase (Saccharomyces cerevisiae S288c) (UniProt P53341+P38158+P07265). In words: Inhibition of yeast alpha-glucosidase using p-nitrophenyl glycoside as substrate at 1000 uM by spectrometric method relative to control. Format: protein assay.
The target in assay [5] is T2, Tissue alpha-L-fucosidase (Bos taurus) (UniProt Q2KIM0).
T2 sequence (whole entry): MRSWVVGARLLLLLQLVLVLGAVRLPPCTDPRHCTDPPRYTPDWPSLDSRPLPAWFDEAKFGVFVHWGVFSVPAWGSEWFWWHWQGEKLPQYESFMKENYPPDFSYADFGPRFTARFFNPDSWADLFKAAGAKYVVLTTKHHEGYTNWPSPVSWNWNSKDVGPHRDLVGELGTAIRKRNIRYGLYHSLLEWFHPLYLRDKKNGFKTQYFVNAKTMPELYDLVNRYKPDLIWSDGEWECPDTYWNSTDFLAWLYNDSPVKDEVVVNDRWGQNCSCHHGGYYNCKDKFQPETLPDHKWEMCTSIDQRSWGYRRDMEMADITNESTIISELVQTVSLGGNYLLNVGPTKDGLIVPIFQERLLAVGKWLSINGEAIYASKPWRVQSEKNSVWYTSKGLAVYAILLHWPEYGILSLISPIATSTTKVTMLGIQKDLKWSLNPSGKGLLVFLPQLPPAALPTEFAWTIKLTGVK
Put plainly: Inhibition of bovine kidney alpha-L-fucosidase using p-nitrophenyl glycoside as substrate at 1000 uM by spectrometric method relative to control. The class given is tissue-based.

The species entered for assay [6] is Bos taurus. Put plainly: Inhibition of bovine liver beta-glucuronidase using p-nitrophenyl glycoside as substrate at 1000 uM by spectrometric method relative to control. Format: tissue-based.
Assay [7] deals with Oryza sativa. Put plainly: Inhibition of rice alpha-glucosidase using p-nitrophenyl glycoside as substrate at 1000 uM by spectrometric method relative to control.
The species entered for assay [8] is Bos taurus. Put plainly: Inhibition of bovine liver beta-glucosidase using p-nitrophenyl glycoside as substrate at 1000 uM by spectrometric method relative to control. The class given is tissue-based.
A short description of assay [9]: Inhibition of Aspergillus niger amyloglucosidase using p-nitrophenyl glycoside as substrate by spectrometric method.
For assay [10], the system named is Prunus dulcis. Put plainly: Inhibition of almond beta-glucosidase using p-nitrophenyl glycoside as substrate at 1000 uM by spectrometric method relative to control.
The species entered for assay [11] is Sus scrofa. Put plainly: Inhibition of porcine kidney alpha/alpha-trehalase using p-nitrophenyl glycoside as substrate at 1000 uM by spectrometric method relative to control. The class given is tissue-based.
Assay [12] concerns Escherichia coli. In words: Inhibition of Escherichia coli beta-glucuronidase using p-nitrophenyl glycoside as substrate at 1000 uM by spectrometric method relative to control.
The species named for assay [13] is Rattus norvegicus. Put plainly: Inhibition of rat intestinal maltase using maltose as substrate at 1000 uM at pH 6.8 by colorimetric method relative to control. The class given is tissue-based. As to conditions: Intestine.
The target in assay [14] is Alpha-galactosidase (Coffea arabica) (UniProt Q42656). In words: Inhibition of coffee bean alpha-galactosidase using p-nitrophenyl glycoside as substrate at 1000 uM by spectrometric method relative to control.
Sequence of Alpha-galactosidase (Coffea arabica) (Q42656 16-378 limits assumed): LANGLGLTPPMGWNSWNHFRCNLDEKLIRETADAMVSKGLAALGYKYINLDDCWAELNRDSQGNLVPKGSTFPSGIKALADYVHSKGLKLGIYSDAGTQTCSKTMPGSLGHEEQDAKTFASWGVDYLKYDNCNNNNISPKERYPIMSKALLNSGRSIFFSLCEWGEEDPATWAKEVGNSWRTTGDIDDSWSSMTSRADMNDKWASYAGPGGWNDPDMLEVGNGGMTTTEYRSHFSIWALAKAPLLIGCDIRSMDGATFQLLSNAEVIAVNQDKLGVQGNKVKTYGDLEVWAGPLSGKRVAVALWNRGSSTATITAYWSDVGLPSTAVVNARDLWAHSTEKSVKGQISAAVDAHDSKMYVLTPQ
The subject of assay [15] is Penicillium decumbens. Put plainly: Inhibition of Penicillium decumbens alpha-L-rhamnosidase using p-nitrophenyl glycoside as substrate at 1000 uM by spectrometric method relative to control.
The nature of assay [16]: Inhibition of rice alpha-glucosidase using p-nitrophenyl glycoside as substrate by spectrometric method. Details: species or system Oryza sativa.
The nature of assay [17]: Inhibition of rat intestinal maltase using maltose as substrate at pH 6.8 by colorimetric method. Format: tissue-based, Intestine.
Assay [18] can be described thus: Inhibition of Aspergillus niger amyloglucosidase.

In general, inhibition refers to the drop in the measured response relative to a control, in per cent. A lower inhibition goes with a weak effect. What is called IC50 is the concentration that gives 50% inhibition. A high value points to a need for much substance. What is called pIC50 is −log10 of the IC50, conventionally taken in molar units. Regarding `OC[C@@H]1[C@@H](O)[C@H](O)[C@H]2C[C@@H](F)CN12`, the inhibition in [1] was determined as 29.9%; in assay [2], 4.3%; in [3], 2.3%; in assay [4] it was 30.1%; in [5], 0.9%; in [6], 21.9%. The inhibition in [7] came to 17.7%; in assay [8] it was 24.3%; in assay [10] it was 17.7%; in [11], 42.3%; in assay [12], 1.2%; in assay [13] it was 30.9%. In addition, the figures for the inhibition in assay [14] and in assay [15] were 6.7% and 4.9%, respectively. In [9], this compound registered an IC50 of 633 µM. This compound gave a pIC50 in assay [9] of 3.199.
Regarding `OC[C@@H]1[C@@H](O)[C@H](O)[C@H]2[C@H](O)[C@@H](F)CN21`, the IC50 in [16] is 771 µM; in assay [17], 313 µM; in assay [9], 35 µM. Further, the inhibition in assay [1] turned out to be 36.7%; in assay [2], 6.2%; in assay [3], 0%; in assay [4] it was 41.9%; in assay [5], 14.6%; in assay [6], 33.2%. In addition, the inhibition in assay [8] stood at 18.8%; in assay [10], 21.5%; in assay [11] it was 34.4%; in [12] it was 7.5%; in assay [14] it was 5%; in [15], 14.1%. This compound also displayed a pIC50 in assay [9] of 4.456.
As to `OC[C@@H]1[C@@H](O)[C@H](O)[C@@H]2N1C[C@H](O)C2(F)F`, in assay [9], the negative logarithm of the IC50 (pIC50) is 4.409. In addition, half-maximal inhibition in assay [18] (IC50) required 39 µM.
`OC[C@@H]1[C@@H](O)[C@H](O)[C@H]2[C@@H](O)[C@H](F)CN21`: the inhibition came to 17.6% in assay [1]; 0.8% in assay [2]; 0% in assay [3]; 0% in [4]; 0% in assay [5]; 23.1% in assay [6]. For the same compound, the inhibition in [7] is 28.4%; in assay [8], 32.3%; in [10] it was 8.5%; in assay [11], 30.4%; in [12] it was 2.9%; in assay [13], 41.7%. Besides, the inhibition in [14] and in assay [15] was 0% in each case. Besides, the half-inhibitory concentration (IC50) in assay [9] came to 11 µM. Further, in [9], the pIC50 is 4.959.
For `OC[C@@H]1[C@@H](O)[C@H](O)[C@H]2[C@H](F)[C@@H](O)CN21`, in assay [9], the pIC50 is given as 5.276. Further, in assay [18], 5.3 µM corresponded to half-maximal inhibition (IC50).
As for `OC[C@@H]1[C@@H](O)[C@H](O)[C@H]2[C@@H](O)C(F)(F)CN21`, the inhibition in assay [1] stood at 6.2%; in assay [2], 0%; in assay [3], 0.8%; in [4], 5.6%; in assay [5], 6.4%; in assay [6] it was 10.1%. Besides, the inhibition came out at 7.7% in [7]; 12% in [8]; 3.5% in assay [10]; 9.2% in assay [11]; 2.6% in [12]; 28.4% in assay [13]. In addition, the inhibition in assay [14] worked out at 0.2%; in [15], 0%. For the same compound, 246 µM corresponded to half-maximal inhibition in [9] (IC50). Also, in assay [9], the negative-log IC50 (pIC50) stood at 3.609.
`OC[C@@H]1[C@@H](O)[C@H](O)[C@H]2[C@@H](F)[C@@H](O)CN21`: in [9], the pIC50 is given as 3.818. This compound registered an IC50 in assay [18] of 152 µM.
The like results for `OC[C@@H]1[C@@H](O)[C@H](O)[C@H]2[C@H](F)[C@H](O)CN21` were, in that order, 5.347 and 4.5 µM.
Take `OC[C@@H]1[C@@H](O)[C@H](O)[C@H]2[C@@H](O)[C@@H](F)CN21`: the IC50 stood at 350 µM in [16], 927 µM in assay [17] and 248 µM in assay [9]. The inhibition in assay [1] came to 38%; in assay [2] it was 0%; in assay [3], 3.3%; in assay [4] it was 18%; in assay [5] it was 14%; in assay [6], 13.3%. In addition, the inhibition in [8] amounted to 35.9%; in [10] it was 13.6%; in [11], 30.4%; in assay [12] it was 7%; in [14] it was 0%; in assay [15] it was 1.7%. Further, the pIC50 in assay [9] is reported as 3.606.
For the compound `OC[C@@H]1[C@@H](O)[C@H](O)[C@H]2CC(F)(F)CN12`, the inhibition stood at 22.4% in assay [1]; 0% in assay [2]; 0% in assay [3]; 3.6% in assay [4]; 0% in assay [5]; 0% in assay [6]. The inhibition in [7] came out at 15.4%; in assay [8] it was 12.5%; in [10] it was 11.4%; in assay [11], 3.2%; in assay [12], 0%; in [13], 7.9%. In addition, the inhibition was found to be 1.6% in [14] and 3% in [15]. In assay [9], 27 µM corresponded to half-maximal inhibition (IC50). The pIC50 in [9] was found to be 4.569.
With `OC[C@@H]1[C@@H](O)[C@H](O)[C@H]2[C@@H](F)CCN21`, the pIC50 in assay [9] is 4.092. The midpoint of inhibition in [18], the IC50, lay at 81 µM.
Turning to `OC[C@@H]1[C@@H](O)[C@H](O)[C@H]2[C@@H](F)[C@H](O)CN21`, the pIC50 in assay [9] came out at 3.777. In assay [18], this compound gave an IC50 of 167 µM.
In the same order, the values of `OC[C@@H]1[C@@H](O)[C@H](O)[C@@H]2N1C[C@@H](O)C2(F)F` are 4.222 and 60 µM.
With `OC[C@@H]1[C@@H](O)[C@H](O)[C@H]2C[C@H](F)CN12`, the inhibition is 25.8% in [1]; 0% in [2]; 0% in [3]; 0% in assay [4]; 0% in assay [5]; 14.8% in [6]. Further, the inhibition in assay [7] turned out to be 10%; in assay [8] it was 25.5%; in [10] it was 36.8%; in [11], 23%; in [12], 0%; in assay [13] it was 7.9%. The results for the inhibition in assay [14] and in [15] were 2.9% and 9.9%, respectively. The same compound displayed an IC50 in [9] of 2.2 µM. The compound further yielded a pIC50 in assay [9] of 5.658.
`OC[C@@H]1[C@@H](O)[C@H](O)[C@H]2[C@@H](O)[C@@H](O)CN21` registered a pIC50 in assay [9] of 4.194. The compound also came in with an IC50 in [18] of 64 µM.
